Assay results: patent US11981676B1, “Pyrazolo[4,3-c][2,6]naphthyridines as CK2 inhibitors” (KING FAISAL UNIVERSITY, priority 2024, dated 2024)

Experiments:
A375 (melanoma) = assay: In vitro cytotoxic activity MTT assay, A375; type: cell-based; details: Homo sapiens, A-375; A375 cells, exposed for 96 hours, 50% inhibition of cell proliferation; read-out: Cytotoxicity activity IC50, A375 (melanoma)
Description: (§1) Compounds 1-16 were screened for their in vitro cytotoxic activity utilizing a 3-(4,5-dimethyl-thiazol-2-yl)-2,5-diphenyltetrazolium bromide (MTT) assay against selected cancer human cell lines consisting of PC3 (prostate), HCT116 (colon), A375 (melanoma), H1299 (lung), MIAPaCa-2 (pancreas), HL60 (leukemia), MCF7 (breast), MDA-MB-231 (breast) (T. Mosmann, J. Immunol. Meth., 1983, 65, 55-63). The cells were cultured at 37° C. in RMPI1640 medium supplemented with 10% fetal bovine serum, 50 IU/mL penicillin, and 50 μg/mL streptomycin in a 5% CO2 incubator. All cells were sub-cultured 3 times/week by trypsinisation. Viable cells were seeded and allowed to adhere for 12 hours before a test drug was added in 96-well plates at an initial density of 1.0×10^5 cells/mL. Tumor cell lines were separately exposed to various concentrations of the tested compounds followed by incubation at a temperature of 37° C. during 96 hours inside a medium of fresh RMPI 1640. Cells were subsequently incubated at 37° C. using MTT at 0.5 mg/mL during 4 hours. After removal of supernatant, formazan crystals were dissolved in isopropanol and the optical density was measured at 570 nm. CX-4945 was used as a positive control.

[1] = molecular target: T1, recombinant human CK2 (RRββ-holoenzyme) (Homo sapiens, UniProt P68400); assay: CK2 Kinase Assay (33P-ATP, filter plate); type: biochemical; details: recombinant human CK2, final ATP 15 μM, 10 min at 30° C.; read-out: protein kinase CK2 IC50
T1 construct: purchased Millipore
T1 sequence (P68400 whole entry): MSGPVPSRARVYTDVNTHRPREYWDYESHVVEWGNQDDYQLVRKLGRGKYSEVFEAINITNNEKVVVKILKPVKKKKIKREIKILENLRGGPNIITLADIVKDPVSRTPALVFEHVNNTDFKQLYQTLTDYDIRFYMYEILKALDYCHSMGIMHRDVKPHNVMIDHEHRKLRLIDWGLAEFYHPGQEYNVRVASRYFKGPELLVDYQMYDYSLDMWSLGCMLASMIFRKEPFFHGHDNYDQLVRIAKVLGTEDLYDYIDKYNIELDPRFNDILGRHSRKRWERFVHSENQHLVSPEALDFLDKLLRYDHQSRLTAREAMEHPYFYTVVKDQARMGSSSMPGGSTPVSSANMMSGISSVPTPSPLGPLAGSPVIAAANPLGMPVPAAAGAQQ
T1 sequence (P67870 whole entry partner): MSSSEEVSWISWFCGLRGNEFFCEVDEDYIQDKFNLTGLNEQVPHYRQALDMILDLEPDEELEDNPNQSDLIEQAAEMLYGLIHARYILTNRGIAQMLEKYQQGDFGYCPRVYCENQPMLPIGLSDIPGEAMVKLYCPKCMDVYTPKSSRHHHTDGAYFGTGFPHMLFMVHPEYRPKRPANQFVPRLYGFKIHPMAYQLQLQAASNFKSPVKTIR
Description: CK2 Kinase Assay was conducted using the protocol as described in Pierre F. et al; J. Med. Chem. 2011, 54, 635-654. The tested compounds in aqueous solution were added at a volume of 10 μL to a reaction mixture comprising 10 μL of assay dilution buffer (ADB; 20 mM MOPS, pH 7.2, 25 mM β-glycerol phosphate, 5 mM EGTA, 1 mM sodium orthovanadate, and 1 mM dithiothreitol), 10 μL of substrate peptide (RRRDDDSDDD, dissolved in ADB at a concentration of 1 mM), 10 μL of recombinant human CK2 (RRββ-holoenzyme, 25 ng dissolved in ADB; Millipore). Reactions were initiated by the addition of 10 μL of ATP solution (90% 75 mMMgCl2, 75 μM ATP (final ATP concentration:15 μM) dissolved in ADB; 10% [γ-33P] ATP (stock 1mCi/100 μL; 3000 Ci/mmol (Perkin-Elmer) and maintained for 10 min at 30° C. The reactions were quenched with 100 μL of 0.75% phosphoric acid and then transferred to and filtered through a phosphor cellulose filter plate (Millipore). After washing each well five times with 0.75% phosphoric acid, the plate was dried under vacuum for 5 min and, following the addition of 15 μL of scintillation fluid to each well, the residual radioactivity was measured using a Wallac […]. The IC50 values were derived from eight concentrations of test inhibitors.

MIAPaCa-2 (pancreas) = assay: In vitro cytotoxic activity MTT assay, MIAPaCa-2; type: cell-based; details: Homo sapiens, MIA PaCa-2; MIAPaCa-2 cells, exposed for 96 hours, 50% inhibition of cell proliferation; read-out: Cytotoxicity activity IC50, MIAPaCa-2 (pancreas)
Description: as §1

MDA-MB-231 (breast) = assay: In vitro cytotoxic activity MTT assay, MDA-MB-231; type: cell-based; details: Homo sapiens; MDA-MB-231 cells, exposed for 96 hours, 50% inhibition of cell proliferation; read-out: Cytotoxicity activity IC50, MDA-MB-231 (breast)
Description: as §1

PC3 (prostate) = assay: In vitro cytotoxic activity MTT assay, PC3; type: cell-based; details: Homo sapiens, PC-3; PC3 cells, exposed for 96 hours, 50% inhibition of cell proliferation; read-out: Cytotoxicity activity IC50, PC3 (prostate)
Description: as §1

HCT116 (colon) = assay: In vitro cytotoxic activity MTT assay, HCT116; type: cell-based; details: Homo sapiens, HCT-116; HCT116 cells, exposed for 96 hours, 50% inhibition of cell proliferation; read-out: Cytotoxicity activity IC50, HCT116 (colon)
Description: as §1

H1299 (lung) = assay: In vitro cytotoxic activity MTT assay, H1299; type: cell-based; details: Homo sapiens, NCI-H1299; H1299 cells, exposed for 96 hours, 50% inhibition of cell proliferation; read-out: Cytotoxicity activity IC50, H1299 (lung)
Description: as §1

HL60 (leukemia) = assay: In vitro cytotoxic activity MTT assay, HL60; type: cell-based; details: Homo sapiens, HL-60; HL60 cells, exposed for 96 hours, 50% inhibition of cell proliferation; read-out: Cytotoxicity activity IC50, HL60 (leukemia)
Description: as §1

MCF7 (breast) = assay: In vitro cytotoxic activity MTT assay, MCF7; type: cell-based; details: Homo sapiens; MCF7 cells, exposed for 96 hours, 50% inhibition of cell proliferation; read-out: Cytotoxicity activity IC50, MCF7 (breast)
Description: as §1

O=C(O)c1n[nH]c2c1nc(Nc1cccc(Cl)c1)c1ccncc12 [Compound 1, 5-((3-chlorophenyl)amino)-1H-pyrazolo[4,3-c][2,6]naphthyridine-3-carboxylic acid] was tested, and the IC50 (A375 (melanoma)) was 4300 nM, the IC50 [1] was 31 nM and the IC50 (MIAPaCa-2 (pancreas)) was 900 nM. The IC50 (MDA-MB-231 (breast)) was 4100 nM, the IC50 (PC3 (prostate)) was 1800 nM and the IC50 (HCT116 (colon)) was 1900 nM. For the same compound, the IC50 (H1299 (lung)) was 2200 nM, the IC50 (HL60 (leukemia)) was 3000 nM and the IC50 (MCF7 (breast)) was 4900 nM.
